The values that follow come from patent US20090285916A1, “METHODS OF DIAGNOSIS AND TREATMENT OF EQUINE LAMINITIS AND CUSHING'S SYNDROME” (Pegasus Equine Diagnostics Limited, priority 2006, published 2009).

In series [1] the test system is PPID (pituitary pars intermedia dysfunction). The experiment in a line: Anecdotal evidence on melatonin and pergolide dosing in PPID horses and ponies. In kind it is in vivo. The source says: From a chronological perspective obviously both groups of horses were aged (>16 years), but from the viewpoint of the Neuroendocrine Theory of Aging (21) the PPID group might be considered to be of greater “biological age” than the control group. […] There was also a pronounced dopamine rhythm phase shift and amplitude decrease for the PPID group in June and September, in addition to evidence of serotonin acrophase amplitudes being increased in September. These observations are consistent with the reduction in dopamine and concomitant increase in serotonin implied in the treatment of PPID horses with dopamine agonists and serotonin antagonists. […] This may also apply to the subsequent increases in follicle density and length plus coarsening of the hair structure that have been observed. It is worth noting that the significant differences between the groups in our results appear to pre-date the traditionally acknowledged seasons (spring, autumn) of increased laminitis susceptibility by approximately three months (as well as being present during such seasons); this is perhaps not when most practitioners would expect them. […] The situation may, of course, be exacerbated by other trigger factors for laminitis becoming part of the external conditions to which the horse is exposed, e.g. access to a flush of spring grass. Additionally, it might be expected that dopamine and serotonin would be the dominant factors implicated in investigating PPID, as defined by past treatment regimes. However, when the results of the present study were examined as a whole, taking into account assay sensitivity, the neurohormone rhythms that were discovered and neurohormone rhythms that exist in the literature for healthy horses (14, 40, 41), the signals felt to be most reliable were dopamine plasma concentrations and serotonin:melatonin and dopamine:melatonin plasma concentration ratios, with serotonin:dopamine only represented for two times in June (as shown in FIG. 6). […]

For the next series, the system named is equine digital arteries. As to conditions: reference 38; cited from earlier work.

For `CCCN1C[C@H](CSC)C[C@@H]2c3cccc4[nH]cc(c34)C[C@H]21` [pergolide], in series [1], the “effect of changing time of day of administration, changing the dosage (by as little as 0.05 mg per day) and under or over dosing” value was “increase the probability that laminitis will occur”. Moreover, the “maximum dosage for ponies” value in series [1] (ponies) was 0.75 mg.

With `COc1ccc2[nH]cc(CCNC(C)=O)c2c1` [melatonin], the “shedding of the winter coat” value in series [1] (low dosage 1.5 mg, in the evening each day, all year round) is “facilitates shedding of the winter coat at the expected time”.

Regarding `NCCc1c[nH]c2ccc(O)cc12` [5-HT, 5-hydroxytryptamine], the “sensitivity of digital arteries to vasoconstrictive actions compared with other peripheral blood vessels” value with equine digital arteries was 30-40 fold.
